Test systems include DU-145 prostate; HCT-15 colon; KM12 colon; MDA-MB-231 breast; OVCAR-4 ovarian; SN12C renal; T-47D breast; UO-31 renal; NCI-H460 lung; NCI/ADR-RES ovarian.
Holding throughout (test): NCI tumour cell line growth inhibition, 48 h

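Tested at 5 concentrations; 48 h exposure; 96-well plates; endpoints linearly interpolated, else capped at highest concentration. GI50 = concentration required for 50% inhibition of growth. Definition used: TGI = concentration required for complete inhibition of growth.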

As to `O=C1c2ccccc2-c2c1c1ccc([N+](=O)[O-])cc1c(=O)n2CCCBr`, the GI50 with DU-145 prostate, in the assay on HCT-15 colon, in the assay with KM12 colon, with MDA-MB-231 breast, with OVCAR-4 ovarian and in the assay on SN12C renal was more than 100 µM in each case. In addition, the GI50 in the assay on T-47D breast and with UO-31 renal was more than 100 µM each time. For the same compound, the TGI with DU-145 prostate, in the assay with HCT-15 colon, with KM12 colon, in the assay with MDA-MB-231 breast, in the assay with OVCAR-4 ovarian and in the assay on SN12C renal was more than 100 µM in each case. The TGI in the assay on T-47D breast and in the assay with UO-31 renal was more than 100 µM throughout.
In the case of `Cc1ccc(-c2cc(-c3ccc(C)cc3)nc(NCCNc3ccnc4cc(Cl)ccc34)n2)cc1`, the GI50 was 1.81 µM in the assay with DU-145 prostate; 1.55 µM in the assay with HCT-15 colon; 1.75 µM in the assay with KM12 colon; 1.88 µM with MDA-MB-231 breast; 1.91 µM with NCI-H460 lung; 1.63 µM with OVCAR-4 ovarian. For the same compound, the figures for the GI50 in the assay with SN12C renal, with T-47D breast and in the assay on UO-31 renal were 1.63 µM, 1.74 µM and 1.37 µM, respectively. Moreover, the TGI in the assay on DU-145 prostate stood at 3.31 µM; in the assay with HCT-15 colon it was 3.16 µM; in the assay with KM12 colon, 3.38 µM; in the assay with MDA-MB-231 breast, 3.67 µM; in the assay on NCI-H460 lung, 3.7 µM; in the assay with OVCAR-4 ovarian, 3.24 µM. The results for the TGI in the assay on SN12C renal, in the assay with T-47D breast and with UO-31 renal were 3.29 µM, 3.6 µM and 2.85 µM, respectively.
On to `CCOC(=O)C1=C(NC)OC/C1=N\NC(=O)c1ccccc1O`, for which the TGI in the assay on KM12 colon is more than 100 µM; with NCI-H460 lung it was more than 100 µM; in the assay with OVCAR-4 ovarian, 83.5 µM; in the assay with SN12C renal it was more than 100 µM; with UO-31 renal it was 26.1 µM.
Turning to `CCOc1ccc2nc(NC(=O)c3c/c(=N\NC(=O)C[N+](C)(C)C)c4ccc(O)cc4o3)sc2c1`, the TGI is 20 µM with HCT-15 colon; 19.2 µM in the assay with KM12 colon; 13.4 µM in the assay on NCI-H460 lung; 5.96 µM in the assay on OVCAR-4 ovarian; 14.5 µM in the assay with SN12C renal; 24.7 µM in the assay with UO-31 renal.
Consider `C=C1COC(/C=C(\C)CC/C=C(\C)CCl)C1` (centres undefined), for which the TGI in the assay with HCT-15 colon, in the assay with KM12 colon, in the assay with NCI-H460 lung, in the assay on OVCAR-4 ovarian, with SN12C renal and in the assay on UO-31 renal was more than 100 µM each time.
On to `COc1ccc(OC)c(NC(=O)CCC/C(CC(=O)c2ccc(O)c(OC)c2)=N\NC(=O)C[N+](C)(C)C)c1`, for which the TGI in the assay with HCT-15 colon, in the assay on KM12 colon, in the assay on NCI-H460 lung, with OVCAR-4 ovarian, with SN12C renal and with UO-31 renal was more than 100 µM throughout.
As to `CCCCCCCCCCCC(=O)OCCOCCOCCOCCOCCOCc1ccc(OC)cc1`, the TGI in the assay with HCT-15 colon, with KM12 colon, in the assay on NCI-H460 lung, in the assay on OVCAR-4 ovarian, with SN12C renal and in the assay with UO-31 renal was more than 100 µM each time.
Regarding `COc1ccc(C2CC(c3cc(OC)c(OC)c(OC)c3)=NN2C(C)=O)cc1OCC(=O)Nc1nc2ccc(C(F)(F)F)cc2s1` (centres undefined), the GI50 was 9.26 µM in the assay with HCT-15 colon; 3.11 µM in the assay with MDA-MB-231 breast; 3.13 µM in the assay on NCI/ADR-RES ovarian; 2.9 µM in the assay with OVCAR-4 ovarian; 3.31 µM in the assay on SN12C renal. Also, the TGI in the assay on HCT-15 colon was more than 100 µM; with MDA-MB-231 breast, 8.96 µM; with NCI/ADR-RES ovarian, more than 100 µM; in the assay on OVCAR-4 ovarian, more than 100 µM; in the assay with SN12C renal it was more than 100 µM.
On to `Cn1c2c(cc(S(=O)(=O)c3ccccc3)c1=O)CCc1c-2cnn1-c1ccc(Cl)cc1`, for which the GI50 in the assay on HCT-15 colon is 3.02 µM; with KM12 colon, 5.12 µM; in the assay on MDA-MB-231 breast, 2.24 µM; with NCI/ADR-RES ovarian, 3.09 µM; in the assay on OVCAR-4 ovarian, 2.5 µM; with T-47D breast, 2.06 µM. Further, the GI50 in the assay with UO-31 renal was 1.87 µM. The TGI was more than 100 µM in the assay with HCT-15 colon; more than 100 µM with KM12 colon; 5.27 µM with MDA-MB-231 breast; 8.94 µM in the assay on NCI/ADR-RES ovarian; 6.71 µM with OVCAR-4 ovarian; 5.5 µM with T-47D breast. Besides, in the assay with UO-31 renal, the TGI worked out at 6.09 µM.
Consider `COC1CC(OS(=O)(=O)c2ccc(C)cc2)C(OC(=O)c2ccccc2)C(C)O1` (centres undefined), for which the GI50 with HCT-15 colon, in the assay with KM12 colon, with NCI-H460 lung, in the assay with OVCAR-4 ovarian, with SN12C renal and in the assay on UO-31 renal was more than 100 µM each time. Besides, the TGI in the assay with HCT-15 colon, in the assay on KM12 colon, in the assay with NCI-H460 lung, in the assay on OVCAR-4 ovarian, with SN12C renal and in the assay with UO-31 renal was more than 100 µM throughout.
Consider `Cc1c(C#N)c(=O)[nH]c(=O)n1CCN1CCN(C(=O)NCCCCCCNC(=O)N2CCN(CCn3c(C)c(C#N)c(=O)[nH]c3=O)CC2)CC1`, for which the TGI with HCT-15 colon, with NCI-H460 lung, in the assay on OVCAR-4 ovarian and in the assay with SN12C renal was more than 100 µM each time.
`CC(C)CC(CC1=CCC2CC1C2(C)C)C1=C(O)C(C)(C)C(=O)C(C)(C)C1=O` (centres undefined): the GI50 in the assay on DU-145 prostate was 0.465 µM; in the assay with HCT-15 colon, 0.35 µM; in the assay with KM12 colon it was 0.328 µM; in the assay with MDA-MB-231 breast, 0.247 µM; in the assay with NCI/ADR-RES ovarian it was 0.306 µM; in the assay with OVCAR-4 ovarian, 0.486 µM. For the same compound, the values for the GI50 with SN12C renal and in the assay with UO-31 renal were 0.324 µM and 0.272 µM, respectively. Besides, the TGI with DU-145 prostate is more than 100 µM; with HCT-15 colon, 5.18 µM; in the assay with KM12 colon it was 2.79 µM; with MDA-MB-231 breast it was 0.717 µM; in the assay on NCI/ADR-RES ovarian, 0.979 µM; in the assay on OVCAR-4 ovarian it was more than 100 µM. Further, the TGI is more than 100 µM in the assay on SN12C renal and 2.4 µM in the assay on UO-31 renal.

For the origin of these results see PubChem BioAssay (NCI).
